Experimental data: patent US11999716B2, “WDR5 inhibitors and modulators” (priority 2018, dated 2024)
Like-named read-outs stand apart in the source and are kept apart here.

Tested on: MV4:11 human cancer cell lines
Assay: Cellular viability / anti-proliferative activity, CellTiter-Glo, 5 day protocol
Assay type: cell-based
Settings: MV4:11 cells, 5 day incubation, CellTiter-Glo, mean of minimum two replicates, read-out: GI50 on cellular proliferation of MV4:11 human cancer cell lines
Summary of the method: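 Cells seeded at 200 per well (7200 cells/mL) with compound in 2-fold serial dilutions from 30 μM top (22 points), 0.3% DMSO final. Viability read by CellTiter-Glo luminescence after 5 days; GI50 from sigmoidal dose-response fit, mean of at least two replicates.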

GI50 (Homo sapiens, MV4-11, 120 h) [nM]	GI50 [nM]	Structure (SMILES)
> 938	–	COc1cc(CN2CCc3c(cc(Cn4ncnc4C)cc3-c3ccc(F)cc3C)C2=O)cc(OC)c1 [Example 144, 2-(3,5-Dimethoxybenzyl)-5-(4-fluoro-2-methylphenyl)-7-((5-methyl-1H-1,2,4-triazol-1-yl)methyl)-3,4-dihydroisoquinolin-1(2H)-one]
> 938	–	COc1cc(CN2CCc3c(cc(Cn4cnnc4C)cc3-c3ccc(F)cc3C)C2=O)cc(OC)c1 [Example 145, 2-(3,5-Dimethoxybenzyl)-5-(4-fluoro-2-methylphenyl)-7-((3-methyl-4H-1,2,4-triazol-4-yl)methyl)-3,4-dihydroisoquinolin-1(2H)-one]
< 50	–	Cc1cc([C@H](C)N2CCc3c(cc(Cn4ccnc4C)cc3-c3cn(C)nc3C)C2=O)ccc1F [Example 146, (S)-5-(1,3-Dimethyl-1H-pyrazol-4-yl)-2-(1-(4-fluoro-3-methylphenyl)ethyl)-7-((2-methyl-1H-imidazol-1-yl)methyl)-3,4-dihydroisoquinolin-1(2H)-one]
73	81	Cn1cc(-c2cc(Cn3ccn(C)c3=N)cc3c2CCN(Cc2cc(C4CC4)nn2C)C3=O)c(C(F)(F)F)n1 [Example 147, 2-((3-Cyclopropyl-1-methyl-1H-pyrazol-5-yl)methyl)-7-((2-imino-3-methyl-2,3-dihydro-1H-imidazol-1-yl)methyl)-5-(1-methyl-3-(trifluoromethyl)-1H-pyrazol-4-yl)-3,4-dihydroisoquinolin-1(2H)-one]
< 50	–	Cc1nccn1Cc1cc2c(c(-c3cn(C)nc3C(F)(F)F)c1)CCN(Cc1cc(C3CC3)nn1C)C2=O [Example 148, 2-((3-Cyclopropyl-1-methyl-1H-pyrazol-5-yl)methyl)-7-((2-methyl-1H-imidazol-1-yl)methyl)-5-(1-methyl-3-(trifluoromethyl)-1H-pyrazol-4-yl)-3,4-dihydroisoquinolin-1(2H)-one]
< 50	–	CCc1ccnc(CN2CCc3c(cc(Cn4ccnc4CC)cc3-c3cn(CC)nc3C(F)(F)F)C2=O)c1 [Example 149, 7-((2-Ethyl-1H-imidazol-1-yl)methyl)-5-(1-ethyl-3-(trifluoromethyl)-1H-pyrazol-4-yl)-2-((4-ethylpyridin-2-yl)methyl)-3,4-dihydroisoquinolin-1(2H)-one]
< 50	–	Cn1cc(-c2cc(Cn3ccoc3=N)cc3c2CCN(Cc2cc(C4CC4)nn2C)C3=O)c(C(F)(F)F)n1 [Example 150, 2-((3-Cyclopropyl-1-methyl-1H-pyrazol-5-yl)methyl)-7-((2-iminooxazol-3(2H)-yl)methyl)-5-(1-methyl-3-(trifluoromethyl)-1H-pyrazol-4-yl)-3,4-dihydroisoquinolin-1(2H)-one]
< 50	–	CCn1cc(-c2cc(CN3CCSC3=N)cc3c2CCN([C@@H](C)c2cc(OC)ccn2)C3=O)c(C(F)(F)F)n1 [Example 151, (S)-5-(1-Ethyl-3-(trifluoromethyl)-1H-pyrazol-4-yl)-7-((2-iminothiazolidin-3-yl)methyl)-2-(1-(4-methoxypyridin-2-yl)ethyl)-3,4-dihydroisoquinolin-1(2H)-one]
< 50	–	CCn1cc(-c2cc(Cn3cnn(C)c3=N)cc3c2CCN([C@@H](C)c2cc(OC)ccn2)C3=O)c(C(F)(F)F)n1 [Example 152, (S)-5-(1-ethyl-3-(trifluoromethyl)-1H-pyrazol-4-yl)-7-((5-imino-1-methyl-1,5-dihydro-4H-1,2,4-triazol-4-yl)methyl)-2-(1-(4-methoxypyridin-2-yl)ethyl)-3,4-dihydroisoquinolin-1(2H)-one]
> 938	–	COc1cc(CN2CCc3c(cc(Cn4ccn(C)c4=N)cc3-c3nc(C)cn3C)C2=O)cc(OC)c1 [Example 153, 2-(3,5-Dimethoxybenzyl)-5-(1,4-dimethyl-1H-imidazol-2-yl)-7-((2-imino-3-methyl-2,3-dihydro-1H-imidazol-1-yl)methyl)-3,4-dihydroisoquinolin-1(2H)-one]
559	–	COc1cc(CN2CCc3c(cc(Cn4ccn(C)c4=N)cc3-c3cc(C)nc(C)c3)C2=O)cc(OC)c1 [Example 154, 2-(3,5-Dimethoxybenzyl)-5-(2,6-dimethylpyridin-4-yl)-7-((2-imino-3-methyl-2,3-dihydro-1H-imidazol-1-yl)methyl)-3,4-dihydroisoquinolin-1(2H)-one]
407	–	CCc1nccn1Cc1cc2c(c(-c3cc(C)nc(C)c3)c1)CCN(Cc1cc(OC)cc(OC)c1)C2=O [Example 155, 2-(3,5-Dimethoxybenzyl)-5-(2,6-dimethylpyridin-4-yl)-7-((2-ethyl-1H-imidazol-1-yl)methyl)-3,4-dihydroisoquinolin-1(2H)-one]
< 50	–	CCn1cc(-c2cc(Cn3ccnc3C)cc3c2CCN([C@@H](C)c2cc(OC)ccn2)C3=O)c(C(F)(F)F)n1 [Example 156, (S)-5-(1-Ethyl-3-(trifluoromethyl)-1H-pyrazol-4-yl)-2-(1-(4-methoxypyridin-2-yl)ethyl)-7-((2-methyl-1H-imidazol-1-yl)methyl)-3,4-dihydroisoquinolin-1(2H)-one]
< 50	–	Cc1cncc(CN2CCc3c(cc(Cn4ccnc4C)cc3-c3cn(C)nc3C(F)(F)F)C2=O)c1 [Example 157, 7-((2-Methyl-1H-imidazol-1-yl)methyl)-5-(1-methyl-3-(trifluoromethyl)-1H-pyrazol-4-yl)-2-((5-methylpyridin-3-yl)methyl)-3,4-dihydroisoquinolin-1(2H)-one]
< 50	–	CCn1cc(-c2cc(Cn3ccnc3C3CC3)cc3c2CCN([C@@H](C)c2cc(OC)ccn2)C3=O)c(C(F)(F)F)n1 [Example 159, (S)-7-((2-Cyclopropyl-1H-imidazol-1-yl)methyl)-5-(1-ethyl-3-(trifluoromethyl)-1H-pyrazol-4-yl)-2-(1-(4-methoxypyridin-2-yl)ethyl)-3,4-dihydroisoquinolin-1(2H)-one]
< 50	–	CCn1cc(-c2cc(Cn3ccnc3)cc3c2CCN([C@@H](C)c2cc(OC)ccn2)C3=O)c(C(F)(F)F)n1 [Example 160, (S)-7-((1H-Imidazol-1-yl)methyl)-5-(1-ethyl-3-(trifluoromethyl)-1H-pyrazol-4-yl)-2-(1-(4-methoxypyridin-2-yl)ethyl)-3,4-dihydroisoquinolin-1(2H)-one]
< 50	–	CCn1cc(-c2cc(Cn3ccnc3NC)cc3c2CCN([C@@H](C)c2cc(OC)ccn2)C3=O)c(C(F)(F)F)n1 [Example 161, (S)-5-(1-Ethyl-3-(trifluoromethyl)-1H-pyrazol-4-yl)-2-(1-(4-methoxypyridin-2-yl)ethyl)-7-((2-(methylamino)-1H-imidazol-1-yl)methyl)-3,4-dihydroisoquinolin-1(2H)-one]
13400	–	CCn1cc(-c2cc(Cn3ccnc3C(C)C)cc3c2CCN([C@@H](C)c2cc(OC)ccn2)C3=O)c(C(F)(F)F)n1 [Example 162, (S)-5-(1-Ethyl-3-(trifluoromethyl)-1H-pyrazol-4-yl)-7-((2-isopropyl-1H-imidazol-1-yl)methyl)-2-(1-(4-methoxypyridin-2-yl)ethyl)-3,4-dihydroisoquinolin-1(2H)-one]
< 50	–	Cc1cc([C@H](C)N2CCc3c(cc(Cn4ccnc4C)cc3-c3cn(C)nc3C(F)(F)F)C2=O)ncc1F [Example 163, (S)-2-(1-(5-fluoro-4-methylpyridin-2-yl)ethyl)-7-((2-methyl-1H-imidazol-1-yl)methyl)-5-(1-methyl-3-(trifluoromethyl)-1H-pyrazol-4-yl)-3,4-dihydroisoquinolin-1(2H)-one]
